Experimental data published in US8901105B2, “Prodrug derivatives of (E)-N-methyl-N-((3-M ethylbenzofuran-2-yl)methyl)-3-(7-oxo-5,6,7,8-tetrahydro-1,8-naphthyridin-3-yl)acrylamide” (Affinium Pharmaceuticals, Inc., priority 2012, dated 2014).
Structures can show the parent of a compound that is named as a salt. Where two headings read alike, the source gives them in different places.

Key:
[1] = Solid-state stability (HPLC % area after storage); type: physicochemical
Experimental: Various compounds disclosed herein have been placed on long-term solid-state stability protocol. The compounds were stored in glass vials closed with PTFE lined caps at 30° C./65% RH, 40° C./75% RH, 50° C. and 60° C. (ambient humidity). The results of the study after 4 weeks are shown in Table B1 and after 3 months in Table B2. Appearance and purity analysis were conducted using HPLC and XPRD. The HPLC analyses were conducted using standard equipment such as a Agilent HP1100 HPLC (Station ID: LZPES HPLC 04) with YMC-Pack ODS-AQ sub 3 μm, 150×4.6 mm

[2] = Photostability of solid salts; type: physicochemical
[3] = Stability to gamma irradiation; type: physicochemical
Source text: There was no change in appearance and it remained partially crystalline over 1 month at all storage conditions.

[4] = Solution stability in water for injection (WFI); type: physicochemical
[5] = Solution stability in 5% dextrose in water (D5W); type: physicochemical
[6] = tested on: Enterococcus faecalis; test: Broth microdilution MIC; type: cell-based
Experimental: (§1) Bacterial Isolates. Organisms tested in this study are listed in Table P. Clinical isolates consisted of 5 Staphylococcus aureus (MSSA), 3 Staphylococcus aureus (HA-MRSA), 2 Staphylococcus aureus (CA-MRSA), 2 Enterococcus faecalis (VSE), 2 Streptococcus pyogenes, and 2 Escherichia coli (susceptible to most antibiotics). S. aureus ATCC 29213, E. faecalis ATCC 29212, S. pneumoniae ATCC 49619, and E. coli ATCC 25922 were tested for the purposes of quality control.
(§2) Minimal Inhibitory Concentrations (MIC) values against the selected isolates were determined using the reference broth microdilution method according to the Clinical Laboratory Standards Institute (CLSI) guidelines.
(§3) The MIC was read and recorded as the lowest concentration of drug that inhibited visible growth of the organism.

[7] = tested on: Escherichia coli; test: Broth microdilution MIC; type: cell-based; details: Escherichia coli, read-out: MIC
Experimental: as §1, §2, §3

[8] = tested on: Staphylococcus aureus; test: Broth microdilution MIC; type: cell-based; details: for MIC: Staphylococcus aureus, read-out: MIC
Experimental: as §1, §2, §3

[9] = tested on: Streptococcus pneumoniae; test: Broth microdilution MIC; type: cell-based; details: ATCC49619, S. pneumoniae ATCC 49619, read-out: MIC
Experimental: as §1, §2, §3

[10] = tested on: Streptococcus pyogenes; test: Broth microdilution MIC; type: cell-based
Experimental: as §1, §2, §3

[11] = molecular target: T1, S. aureus FabI (Staphylococcus aureus, UniProt Q6GI75); test: Inhibition of S. aureus FabI; type: biochemical
T1 sequence (Q6GI75 1-256): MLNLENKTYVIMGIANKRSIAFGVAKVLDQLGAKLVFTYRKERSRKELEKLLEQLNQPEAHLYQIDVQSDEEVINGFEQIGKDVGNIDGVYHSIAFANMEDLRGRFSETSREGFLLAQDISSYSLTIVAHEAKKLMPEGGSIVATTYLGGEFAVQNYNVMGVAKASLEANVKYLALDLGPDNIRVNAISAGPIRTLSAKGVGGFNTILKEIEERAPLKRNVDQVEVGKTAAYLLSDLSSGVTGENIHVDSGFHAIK

[12] = 1 mg/mL solution, 5° C., 4 hours
[13] = 1 mg/mL solution, 5° C., 24 hours
[14] = 1 mg/mL solution, 5° C., 48 hours
[15] = 1 mg/mL solution, −20° C., 48 hours
[16] = 25 mg/mL solution, 5° C., 4 hours
[17] = 25 mg/mL solution, 5° C., 24 hours
[18] = 25 mg/mL solution, 5° C., 48 hours
[19] = 25 mg/mL solution, RT, 24 hours
[20] = 25 mg/mL solution, RT, 48 hours
[21] = 25 mg/mL solution, −20° C., 48 hours

SMILES: Cc1c(CN(C)C(=O)/C=C/c2cnc3c(c2)CCC(=O)N3COP(=O)(O)O)oc2ccccc12 [Compound 10, (E)-6-[(N-methyl-((3-methylbenzofuran-2-yl)methyl)amino)-3-oxoprop-1-en-1-yl)-2-oxo-3,4-dihydro-1,8-naphthyridin-1(2H)-yl]methylphosphate bis-ethanolammonium salt]
- Solid-state stability % Area ([1]; 3 months, 30° C./65% RH): 98.61 % Area
- Solid-state stability % Area ([1]; 3 months, 40° C./75% RH): 92.75 % Area
- Solid-state stability % Area ([1]; 3 months, 50° C./ambient humidity): 99.04 % Area
- Solid-state stability % Area ([1]; 3 months, Control (ambient lab conditions protected from light)): 98.9 % Area
- Solid-state stability % Area ([1]; 4 weeks, 30° C./65% RH): 98.5 % Area
- Solid-state stability % Area ([1]; 4 weeks, 40° C./75% RH): 98.2 % Area
- Solid-state stability % Area ([1]; 4 weeks, 50° C./ambient humidity): 99.3 % Area
- Solid-state stability % Area ([1]; 4 weeks, 60° C./ambient humidity): 98.7 % Area
- Solid-state stability % Area ([1]; 4 weeks, Control (ambient lab conditions protected from light)): 98.9 % Area
- physical and chemical stability ([1]; over 3 months at 30° C./65% RH and 50° C., closed vials, light protected): physically and chemically stable
- Control % Area (Table C) ([2]; control sample at ambient lab conditions protected from light): 98.9 % Area
- Photo-stability % Area ([2]; exposed to 60% of ICH minimum): 97.7 % Area
- stability to gamma irradiation exposure ([3]; 28.6-30.9 kGy): stable to gamma irradiation
- stability to gamma irradiation ([3]; crystalline, 25 to 31 kGy): stable to gamma irradiation
- Solution stability [4, 12]: 0.96 mg/mL
- Solution stability % Area [4, 12]: 99.4 % Area
- Solution stability [4, 13]: 0.94 mg/mL
- Solution stability % Area [4, 13]: 98.1 % Area
- Solution stability [4, 14]: 0.96 mg/mL
- Solution stability % Area [4, 14]: 98.1 % Area
- Solution stability ([4]; 1 mg/mL solution, Initial): 0.97 mg/mL
- Solution stability % Area ([4]; 1 mg/mL solution, Initial): 99.4 % Area
- Solution stability ([4]; 1 mg/mL solution, RT, 4 hours): 0.94 mg/mL
- Solution stability % Area ([4]; 1 mg/mL solution, RT, 4 hours): 99.0 % Area
- Solution stability ([4]; 1 mg/mL solution, RT, 24 hours): 0.92 mg/mL
- Solution stability % Area ([4]; 1 mg/mL solution, RT, 24 hours): 95.5 % Area
- Solution stability ([4]; 1 mg/mL solution, RT, 48 hours): 0.64 mg/mL
- Solution stability % Area ([4]; 1 mg/mL solution, RT, 48 hours): 92.1 % Area
- Solution stability [4, 15]: 0.96 mg/mL
- Solution stability % Area [4, 15]: 99.3 % Area
- Solution stability [4, 16]: 25.0 mg/mL
- Solution stability % Area [4, 16]: 99.3 % Area
- Solution stability [4, 17]: 24.4 mg/mL
- Solution stability % Area [4, 17]: 98.6 % Area
- Solution stability [4, 18]: 23.1 mg/mL
- Solution stability % Area [4, 18]: 98.0 % Area
- Solution stability ([4]; 25 mg/mL solution, Initial): 24.05 mg/mL
- Solution stability % Area ([4]; 25 mg/mL solution, Initial): 99.5 % Area
- Solution stability ([4]; 25 mg/mL solution, RT, 4 hours): 23.9 mg/mL
- Solution stability % Area ([4]; 25 mg/mL solution, RT, 4 hours): 98.8 % Area
- Solution stability [4, 19]: 22.5 mg/mL
- Solution stability % Area [4, 19]: 95.2 % Area
- Solution stability [4, 20]: 22.8 mg/mL
- Solution stability % Area [4, 20]: 91.5 % Area
- Solution stability [4, 21]: 24.4 mg/mL
- Solution stability % Area [4, 21]: 99.2 % Area
- Solution stability [5, 12]: 0.99 mg/mL
- Solution stability % Area [5, 12]: 99.4 % Area
- Solution stability [5, 13]: 0.99 mg/mL
- Solution stability % Area [5, 13]: 98.8 % Area
- Solution stability [5, 14]: 1.00 mg/mL
- Solution stability % Area [5, 14]: 98.1 % Area
- Solution stability ([5]; 1 mg/mL solution, Initial): 1.00 mg/mL
- Solution stability % Area ([5]; 1 mg/mL solution, Initial): 99.5 % Area
- Solution stability ([5]; 1 mg/mL solution, RT, 4 hours): 0.99 mg/mL
- Solution stability % Area ([5]; 1 mg/mL solution, RT, 4 hours): 99 % Area
- Solution stability ([5]; 1 mg/mL solution, RT, 24 hours): 0.96 mg/mL
- Solution stability % Area ([5]; 1 mg/mL solution, RT, 24 hours): 96.1 % Area
- Solution stability ([5]; 1 mg/mL solution, RT, 48 hours): 0.95 mg/mL
- Solution stability % Area ([5]; 1 mg/mL solution, RT, 48 hours): 93.1 % Area
- Solution stability [5, 15]: 0.99 mg/mL
- Solution stability % Area [5, 15]: 99.3 % Area
- Solution stability [5, 16]: 24.9 mg/mL
- Solution stability % Area [5, 16]: 99.3 % Area
- Solution stability [5, 17]: 24.5 mg/mL
- Solution stability % Area [5, 17]: 98.7 % Area
- Solution stability [5, 18]: 24.5 mg/mL
- Solution stability % Area [5, 18]: 98.1 % Area
- Solution stability ([5]; 25 mg/mL solution, Initial): 24.4 mg/mL
- Solution stability % Area ([5]; 25 mg/mL solution, Initial): 99.6 % Area
- Solution stability ([5]; 25 mg/mL solution, RT, 4 hours): 24 mg/mL
- Solution stability % Area ([5]; 25 mg/mL solution, RT, 4 hours): 98.9 % Area
- Solution stability [5, 19]: 23.8 mg/mL
- Solution stability % Area [5, 19]: 95.6 % Area
- Solution stability [5, 20]: 23 mg/mL
- Solution stability % Area [5, 20]: 92.1 % Area
- Solution stability [5, 21]: 24.6 mg/mL
- Solution stability % Area [5, 21]: 99.3 % Area
- MIC ([6]; ATCC29212, E. faecalis ATCC 29212, read-out: MIC): > 16 mg/L
- MIC ([6]; E. faecalis 4158, VSE, read-out: MIC): > 16 mg/L
- MIC ([6]; E. faecalis 4212, VSE, read-out: MIC): > 16 mg/L
- MIC ([7]; ATCC25922, E. coli ATCC 25922): > 16 mg/L
- MIC ([7]; E. coli 2214): > 16 mg/L
- MIC ([7]; E. coli 5255): > 16 mg/L
- MIC ([8]; ATCC29213, S. aureus ATCC 29213): 4 mg/L
- MIC ([8]; MRSA, S. aureus 3083, HA-MRSA): 4 mg/L
- MIC ([8]; MRSA, S. aureus 3086, HA-MRSA): 16 mg/L
- MIC ([8]; MRSA, S. aureus 3265, HA-MRSA): 16 mg/L
- MIC ([8]; MSSA, S. aureus 3104, MSSA): > 16 mg/L
- MIC ([8]; MSSA, S. aureus 3107, MSSA): 8 mg/L
- MIC ([8]; MSSA, S. aureus 3245, MSSA): 16 mg/L
- MIC ([8]; MSSA, S. aureus 3250, MSSA): 8 mg/L
- MIC ([8]; MSSA, S. aureus 3856, MSSA): 16 mg/L
- MIC ([8]; S. aureus 2168, CAMRSA): 4 mg/L
- MIC ([8]; S. aureus 2294, CAMRSA): 16 mg/L
- times less activity than Compound Z ([8]; panel of 11 S. aureus strains): 500-4000 times
- MIC [9]: > 16 mg/L
- MIC ([10]; S. pyogenes 6528): >16 mg/L
- MIC ([10]; Streptococcus pyogenes, S. pyogenes 6179, read-out: MIC): > 16 mg/L
- inhibition of S. aureus FabI [11]: no inhibition
